This note sets out measurements from ChEMBL document CHEMBL4020833, “A Systematic Exploration of Macrocyclization in Apelin-13: Impact on Binding, Signaling, Stability, and Cardiovascular Effects” (J Med Chem, 2018).

Starred links: 1 amine or outer side, 2 acyl side, 3 side chain; linkers in the order of their positions; H or OH if unused. Positions of bridges follow the written chain, without caps; N, C: chain ends. Non-standard residues stand in square brackets, D forms with d. Residues, ends and D or L forms follow the SMILES beside them. *: point of attachment. X1 = O=C([C@H](CCN(CC=[*:3])S(=O)(=O)c1ccccc1[N+](=O)[O-])N[*:1])[*:2]; X6 = N=C(N)NCCC[C@H](NC(=O)[C@@H]1CCC(=O)N1)C(=O)[C@@H]1CCCN1*; X3 = C=CCN([C@@H](CCCNC(=N)N)C(=O)[*:2])[*:1]; X5 = O=C([C@H](CCNCC=[*:3])N[*:1])[*:2]; AllylGly = C=CC[C@H](N)C(=O)O; pGlu = O=C1CC[C@@H](C(=O)O)N1; Nle = CCCC[C@H](N)C(=O)O; CO = O=C([*:1])[*:2] A value given as a limit tells only on which side of the number the result lay.

The target in assay [1] is T1, Apelin receptor (Homo sapiens, UniProt P35414).
T1 sequence (P35414 whole entry): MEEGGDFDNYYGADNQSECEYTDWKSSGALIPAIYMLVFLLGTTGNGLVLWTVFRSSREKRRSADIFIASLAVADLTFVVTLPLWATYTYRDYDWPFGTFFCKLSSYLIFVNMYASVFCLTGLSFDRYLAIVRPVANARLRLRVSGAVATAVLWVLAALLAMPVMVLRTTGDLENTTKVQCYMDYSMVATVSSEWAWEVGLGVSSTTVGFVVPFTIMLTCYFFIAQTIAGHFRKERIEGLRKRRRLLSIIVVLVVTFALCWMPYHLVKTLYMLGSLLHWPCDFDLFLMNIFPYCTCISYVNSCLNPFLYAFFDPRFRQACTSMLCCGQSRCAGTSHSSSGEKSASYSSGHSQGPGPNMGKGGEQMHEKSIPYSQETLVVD
Description: Displacement of [125I]-[Nle75, Tyr77] Pyr1-apelin-13 from YFP-tagged human APJ receptor expressed in HEK293 cell membranes after 1 hr by gamma-counting method.

Assay [2] deals with T1, Apelin receptor. Description: Activity at human APJ receptor expressed in HEK293 cells assessed as dissociation of Galphai1 from Gbetagamma subunit after 5 mins by BRET assay. Type of assay: cell-based.
Assay [3] concerns the target T1, Apelin receptor. As to the kind of experiment: Activity at GFP10-tagged human APJ receptor expressed in HEK293 cells assessed as induction of RlucII-tagged beta-arrestin-2 recruitment after 30 mins by BRET assay. Type of assay: cell-based.

For `C=CC[C@H](NC(=O)[C@H](CCCNC(=N)N)NC(=O)[C@@H]1CCCN1C(=O)[C@H](CCCNC(=N)N)NC(=O)[C@@H]1CCC(=O)N1)C(=O)N[C@@H](CO)C(=O)N[C@@H](Cc1cnc[nH]1)C(=O)N[C@@H](CCCCN)C(=O)N[C@@H](CC=C)C(=O)N1CCC[C@H]1C(=O)N[C@@H](CCCC)C(=O)N1CCC[C@H]1C(=O)N[C@@H](Cc1ccccc1)C(=O)O` ([pGlu]RPR[AllylGly]SHK[AllylGly]P[Nle]PF-OH), the Ki in assay [1] is 3.9 nM. This counts as single-digit nanomolar.

For the compound `C=CC[C@H](NC(=O)[C@H](CC(C)C)NC(=O)[C@H](CCCNC(=N)N)NC(=O)[C@@H]1CCCN1C(=O)[C@H](CCCNC(=N)N)N(CC=C)C(=O)[C@@H]1CCC(=O)N1)C(=O)N[C@@H](Cc1cnc[nH]1)C(=O)N[C@@H](CCCCN)C(=O)NCC(=O)N1CCC[C@H]1C(=O)N[C@@H](CCCC)C(=O)N1CCC[C@H]1C(=O)N[C@@H](Cc1ccccc1)C(=O)O`, the values for the EC50 in assay [2] and in assay [3] were 5.7 nM and 232 nM, respectively. In assay [1], the Ki worked out at 2.9 nM.

In assay [1], `CCCC[C@H](NC(=O)[C@@H]1CCCN1C(=O)CNC(=O)[C@@H]1C/C=C\C[C@H](NC(=O)[C@@H]2CCCN2C(=O)[C@H](CCCNC(=N)N)NC(=O)[C@@H]2CCC(=O)N2)C(=O)N[C@@H](CC(C)C)C(=O)N[C@@H](CO)C(=O)N[C@@H](Cc2cnc[nH]2)C(=O)N1)C(=O)N1CCC[C@H]1C(=O)N[C@@H](Cc1ccccc1)C(=O)O` ([pGlu]RP[AllylGly]LSH[AllylGly]GP[Nle]PF-OH; staple (Z) 4-8) had a Ki of 6070 nM.

`C=CC[C@H](NC(=O)[C@H](CO)NC(=O)[C@H](CC(C)C)NC(=O)[C@H](CCCNC(=N)N)NC(=O)[C@H](CC=C)NC(=O)[C@H](CCCNC(=N)N)NC(=O)[C@@H]1CCC(=O)N1)C(=O)N[C@@H](CCCCN)C(=O)NCC(=O)N1CCC[C@H]1C(=O)N[C@@H](CCCC)C(=O)N1CCC[C@H]1C(=O)N[C@@H](Cc1ccccc1)C(=O)O`: the EC50 in assay [2] is 9.2 nM; in assay [3], 274 nM. In addition, the Ki in assay [1] was 1.9 nM.

As to `C=CC[C@H](NC(=O)[C@H](Cc1ccccc1)NC(=O)[C@@H]1CCCN1C(=O)[C@H](CCCC)NC(=O)[C@H](CC=C)NC(=O)CNC(=O)[C@H](CCCCN)NC(=O)[C@H](Cc1cnc[nH]1)NC(=O)[C@H](CO)NC(=O)[C@H](CC(C)C)NC(=O)[C@H](CCCNC(=N)N)NC(=O)[C@@H]1CCCN1C(=O)[C@H](CCCNC(=N)N)NC(=O)[C@@H]1CCC(=O)N1)C(=O)O` ([pGlu]RPRLSHKG[AllylGly][Nle]PF[AllylGly]-OH), in assay [1], the inhibitory constant (Ki) was found to be 445 nM.

Consider `CCCC[C@@H]1NC(=O)[C@@H]2CCCN2C(=O)[C@@H](NC(=O)[C@H](CCCCN)NC(=O)[C@H](Cc2cnc[nH]2)NC(=O)[C@H](CO)NC(=O)[C@H](CC(C)C)NC(=O)[C@H](CCCNC(=N)N)NC(=O)[C@@H]2CCCN2C(=O)[C@H](CCCNC(=N)N)NC(=O)[C@@H]2CCC(=O)N2)CCN(S(=O)(=O)c2ccccc2[N+](=O)[O-])C/C=C\C[C@H](C(=O)O)NC(=O)[C@@H]2CCCN2C1=O`, for which the EC50 in assay [2] (hek293) was 1.7 nM; in assay [3] (hek293), 63 nM. Moreover, the affinity in assay [1] (hek293), expressed as Ki, was 0.1 nM.

For the compound `C=CC[C@H](NC(=O)CNC(=O)[C@H](CCCCN)NC(=O)[C@H](Cc1cnc[nH]1)NC(=O)[C@H](CC=C)NC(=O)[C@H](CC(C)C)NC(=O)[C@H](CCCNC(=N)N)NC(=O)[C@@H]1CCCN1C(=O)[C@H](CCCNC(=N)N)NC(=O)[C@@H]1CCC(=O)N1)C(=O)N[C@@H](CCCC)C(=O)N1CCC[C@H]1C(=O)N[C@@H](Cc1ccccc1)C(=O)O` ([pGlu]RPRL[AllylGly]HKG[AllylGly][Nle]PF-OH), in assay [1], the Ki stood at 194 nM.

In assay [1], `CCCC[C@@H]1NC(=O)[C@@H]2CCCN2C(=O)[C@@H](N)CCN(S(=O)(=O)c2ccccc2[N+](=O)[O-])C/C=C\C[C@@H](C(=O)O)NC(=O)[C@@H]2CCCN2C1=O` (H-[X1]P[Nle]P[AllylGly]-OH; staple (Z) 1-5) showed a Ki greater than 10000 nM.

`C=CC[C@H](NC(=O)[C@H](Cc1cnc[nH]1)NC(=O)[C@H](CO)NC(=O)[C@H](CC(C)C)NC(=O)[C@H](CC=C)NC(=O)[C@@H]1CCCN1C(=O)[C@H](CCCNC(=N)N)NC(=O)[C@@H]1CCC(=O)N1)C(=O)NCC(=O)N1CCC[C@H]1C(=O)N[C@@H](CCCC)C(=O)N1CCC[C@H]1C(=O)N[C@@H](Cc1ccccc1)C(=O)O` ([pGlu]RP[AllylGly]LSH[AllylGly]GP[Nle]PF-OH) had an inhibition constant Ki in assay [1] of 489 nM.

Take `C=CC[C@H](NC(=O)[C@H](CCCNC(=N)N)NC(=O)[C@@H]1CCCN1C(=O)[C@H](CCCNC(=N)N)NC(=O)[C@@H](N)CC=C)C(=O)N[C@@H](CO)C(=O)N[C@@H](Cc1cnc[nH]1)C(=O)N[C@@H](CCCCN)C(=O)NCC(=O)N1CCC[C@H]1C(=O)N[C@@H](CCCC)C(=O)N1CCC[C@H]1C(=O)N[C@@H](Cc1ccccc1)C(=O)O`: the EC50 in assay [2] worked out at 0.4 nM; in assay [3], 35 nM. Besides, the Ki in assay [1] was found to be 2.5 nM.

Turning to `C=CC[C@H](NC(=O)[C@H](CO)NC(=O)[C@H](CC(C)C)NC(=O)[C@H](CCCNC(=N)N)NC(=O)[C@@H]1CCCN1C(=O)[C@H](CCCNC(=N)N)NC(=O)[C@@H]1CCC(=O)N1)C(=O)N[C@@H](CCCCN)C(=O)NCC(=O)N1CCC[C@H]1C(=O)N[C@@H](CC=C)C(=O)N1CCC[C@H]1C(=O)N[C@@H](Cc1ccccc1)C(=O)O` ([pGlu]RPRLS[AllylGly]KGP[AllylGly]PF-OH), the results for the EC50 in assay [2] and in assay [3] were 1 nM and 42 nM, respectively. The compound further registered a Ki in assay [1] of 0.3 nM.

Regarding `C=CC[C@H](NC(=O)[C@H](Cc1cnc[nH]1)NC(=O)[C@H](CO)NC(=O)[C@H](CC(C)C)NC(=O)[C@H](CCCNC(=N)N)N(CC=C)C(=O)[C@@H]1CCCN1C(=O)[C@H](CCCNC(=N)N)NC(=O)[C@@H]1CCC(=O)N1)C(=O)NCC(=O)N1CCC[C@H]1C(=O)N[C@@H](CCCC)C(=O)N1CCC[C@H]1C(=O)N[C@@H](Cc1ccccc1)C(=O)O` ([pGlu]RP[X3]LSH[AllylGly]GP[Nle]PF-OH), the EC50 in assay [2] came to 2.1 nM; in assay [3] it was 91 nM. The inhibition constant (Ki) in assay [1] was determined as 2.7 nM.

`CCCC[C@@H]1NC(=O)[C@@H]2CCCN2C(=O)[C@@H](N)CCNC/C=C\C[C@@H](C(=O)O)NC(=O)[C@@H]2CCCN2C1=O` (H-[X5]P[Nle]P[AllylGly]-OH; staple (Z) 1-5) had a Ki in assay [1] greater than 10000 nM.

In the case of `CCCC[C@H](NC(=O)[C@@H]1CCCN1C(=O)[C@@H]1C/C=C\C[C@H](NC(=O)[C@H](CCCNC(=N)N)NC(=O)[C@@H]2CCCN2C(=O)[C@H](CCCNC(=N)N)NC(=O)[C@@H]2CCC(=O)N2)C(=O)N[C@@H](CO)C(=O)N[C@@H](Cc2cnc[nH]2)C(=O)N[C@@H](CCCCN)C(=O)N1)C(=O)N1CCC[C@H]1C(=O)N[C@@H](Cc1ccccc1)C(=O)O` ([pGlu]RPR[AllylGly]SHK[AllylGly]P[Nle]PF-OH; staple (Z) 5-9), the inhibition constant (Ki) in assay [1] was determined as 41 nM.

Consider `C=CC[C@H](NC(=O)[C@H](Cc1cnc[nH]1)NC(=O)[C@H](CO)NC(=O)[C@H](CC(C)C)NC(=O)[C@H](CCCNC(=N)N)NC(=O)[C@@H]1CCCN1C(=O)[C@H](CCCNC(=N)N)NC(=O)[C@@H]1CCC(=O)N1)C(=O)NCC(=O)N1CCC[C@H]1C(=O)N[C@@H](CCCC)C(=O)N[C@@H](CC=C)C(=O)N[C@@H](Cc1ccccc1)C(=O)O` ([pGlu]RPRLSH[AllylGly]GP[Nle][AllylGly]F-OH), for which the EC50 in assay [2] was 0.8 nM; in assay [3], 58 nM. In assay [1], this compound came in with a Ki of 2.3 nM.

In assay [1], `C=CC[C@H](NC(=O)[C@H](CC(C)C)NC(=O)[C@H](CCCNC(=N)N)NC(=O)[C@@H]1CCCN1C(=O)[C@H](CC=C)NC(=O)[C@@H]1CCC(=O)N1)C(=O)N[C@@H](Cc1cnc[nH]1)C(=O)N[C@@H](CCCCN)C(=O)NCC(=O)N1CCC[C@H]1C(=O)N[C@@H](CCCC)C(=O)N1CCC[C@H]1C(=O)N[C@@H](Cc1ccccc1)C(=O)O` had an inhibition constant Ki of 523 nM. In other words, the sub-micromolar range.

The compound `CCCC[C@@H]1NC(=O)[C@@H]2CCCN2C(=O)[C@@H](NC(=O)[C@H](CCCCN)NC(=O)[C@H](Cc2cnc[nH]2)NC(=O)[C@H](CO)NC(=O)[C@H](CC(C)C)NC(=O)[C@H](CCCNC(=N)N)NC(=O)[C@@H]2CCCN2C(=O)[C@H](CCCNC(=N)N)NC(=O)[C@@H]2CCC(=O)N2)CCNC/C=C\C[C@@H](C(=O)O)NC(=O)[C@@H]2CCCN2C1=O` returned a Ki in assay [1] of 917 nM. Against the preceding compound, the Ki is about 1.8-fold higher.

Compound `CCCC[C@@H]1NC(=O)[C@@H](NC(=O)CNC(=O)[C@H](CCCCN)NC(=O)[C@H](Cc2cnc[nH]2)NC(=O)[C@H](CO)NC(=O)[C@H](CC(C)C)NC(=O)[C@H](CCCNC(=N)N)NC(=O)N2CCC[C@H]2C(=O)[C@H](CCCNC(=N)N)NC(=O)[C@@H]2CCC(=O)N2)C/C=C\C[C@@H](C(=O)O)NC(=O)[C@H](Cc2ccccc2)NC(=O)[C@@H]2CCCN2C1=O` ({X6-CO}-RLSHKG[AllylGly][Nle]PF[AllylGly]-OH; staple (Z) 7-11) came in with an inhibition constant Ki in assay [1] of 310 nM.

For the compound `CCCC[C@@H]1NC(=O)[C@@H]2CCCN2C(=O)[C@@H](NC(=O)[C@H](CCCCN)NC(=O)[C@H](Cc2cnc[nH]2)NC(=O)[C@H](CO)NC(=O)[C@H](CC(C)C)NC(=O)[C@H](CCCNC(=N)N)NC(=O)[C@@H]2CCCN2C(=O)[C@H](CCCNC(=N)N)NC(=O)[C@@H]2CCC(=O)N2)CCNC/C=C\C[C@H](C(=O)O)NC(=O)[C@@H]2CCCN2C1=O`, the Ki in assay [1] (hek293) turned out to be 206 nM.

Broadly, the Ki is a measure of affinity in units of concentration, obtained from inhibition or displacement. Read a low Ki as higher affinity. The EC50 is the concentration at which the effect is half-maximal.
